Measured values from paper PMC5951806, “Rapid labelling and covalent inhibition of intracellular native proteins using ligand-directed N-acyl-N-alkyl sulfonamide” (Nature Communications, 2018).

Assays:
[1] = molecular target: T1, Carnitine O-palmitoyltransferase 1, liver isoform (CPT1A) (Homo sapiens, UniProt P50416); assay: TMT LC-MSMS of 11-labelled proteins; format: cell-based
T1 sequence (P50416 1-773): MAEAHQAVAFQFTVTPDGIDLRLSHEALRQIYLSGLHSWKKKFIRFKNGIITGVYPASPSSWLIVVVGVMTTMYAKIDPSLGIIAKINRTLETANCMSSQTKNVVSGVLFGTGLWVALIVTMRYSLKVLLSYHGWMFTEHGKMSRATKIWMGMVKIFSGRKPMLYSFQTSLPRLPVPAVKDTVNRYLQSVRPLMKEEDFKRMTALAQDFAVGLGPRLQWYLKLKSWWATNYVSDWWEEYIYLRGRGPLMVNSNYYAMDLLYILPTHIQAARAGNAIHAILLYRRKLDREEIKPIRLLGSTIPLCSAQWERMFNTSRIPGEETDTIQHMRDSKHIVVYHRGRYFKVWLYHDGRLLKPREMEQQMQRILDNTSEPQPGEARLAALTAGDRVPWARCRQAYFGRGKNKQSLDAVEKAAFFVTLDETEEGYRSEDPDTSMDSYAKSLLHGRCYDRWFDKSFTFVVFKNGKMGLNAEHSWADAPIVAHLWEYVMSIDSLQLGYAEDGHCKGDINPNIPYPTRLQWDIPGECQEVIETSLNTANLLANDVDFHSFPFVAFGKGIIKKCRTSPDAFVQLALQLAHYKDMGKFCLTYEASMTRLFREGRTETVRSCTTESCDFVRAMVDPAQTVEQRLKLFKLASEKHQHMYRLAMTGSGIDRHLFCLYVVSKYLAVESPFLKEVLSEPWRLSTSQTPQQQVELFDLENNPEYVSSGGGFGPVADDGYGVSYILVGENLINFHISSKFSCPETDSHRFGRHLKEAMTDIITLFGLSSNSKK

[2] = molecular target: Tubulin alpha-1B chain (TUBA1B) (Homo sapiens, UniProt P68363); assay: TMT LC-MSMS of 11-labelled proteins; format: cell-based
Chain of Tubulin alpha-1B chain (TUBA1B) (P68363 whole entry): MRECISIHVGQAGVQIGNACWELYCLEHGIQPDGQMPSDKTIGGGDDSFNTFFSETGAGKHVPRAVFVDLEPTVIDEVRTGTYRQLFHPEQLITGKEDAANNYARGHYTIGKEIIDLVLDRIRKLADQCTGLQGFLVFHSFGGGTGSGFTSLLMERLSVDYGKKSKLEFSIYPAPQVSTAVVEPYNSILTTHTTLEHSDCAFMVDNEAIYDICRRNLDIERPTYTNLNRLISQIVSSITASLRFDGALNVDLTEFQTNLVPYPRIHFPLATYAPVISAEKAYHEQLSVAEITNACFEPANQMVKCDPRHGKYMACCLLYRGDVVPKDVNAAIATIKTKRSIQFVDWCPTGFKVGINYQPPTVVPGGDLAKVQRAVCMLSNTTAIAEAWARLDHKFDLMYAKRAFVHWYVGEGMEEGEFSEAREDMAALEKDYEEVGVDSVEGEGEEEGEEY
Chain of Tubulin alpha-1B chain (TUBA1B) (P07437 whole entry partner): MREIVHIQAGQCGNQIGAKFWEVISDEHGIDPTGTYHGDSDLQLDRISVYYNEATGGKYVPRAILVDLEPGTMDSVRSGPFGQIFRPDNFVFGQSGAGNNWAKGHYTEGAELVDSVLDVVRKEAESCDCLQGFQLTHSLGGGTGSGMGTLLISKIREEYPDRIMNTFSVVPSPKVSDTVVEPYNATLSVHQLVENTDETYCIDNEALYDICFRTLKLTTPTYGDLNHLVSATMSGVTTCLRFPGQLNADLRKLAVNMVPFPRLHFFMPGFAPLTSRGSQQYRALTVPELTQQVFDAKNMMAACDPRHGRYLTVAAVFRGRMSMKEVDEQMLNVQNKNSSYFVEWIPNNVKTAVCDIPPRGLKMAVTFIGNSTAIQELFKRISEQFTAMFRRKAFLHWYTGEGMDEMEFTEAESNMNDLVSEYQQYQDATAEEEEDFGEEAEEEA

[3] = sheet Exp1, SKBR3 cells, 11 0.5 µM 3 h vs DMSO
[4] = sheet Exp1, SKBR3 cells, 11 0.5 µM 3 h vs with PU-H71 10 µM
[5] = sheet Merged, SKBR3 cells, 11 0.5 µM 3 h vs DMSO
[6] = sheet Merged, SKBR3 cells, 11 0.5 µM 3 h vs with PU-H71 10 µM

Abundance Ratio: (11) / (11 with PU-H71) ([1]; Exp3, CPT1A): 0.719
Abundance Ratio: (11) / (DMSO) ([1]; Exp3, CPT1A): 1.338
Abundances (Grouped): 11 ([1]; Exp3, CPT1A): 20.2
Abundances (Grouped): 11 with PU-H71 ([1]; Exp3, CPT1A, with PU-H71): 28.1
Abundance Ratio: (11) / (DMSO) [1, 3]: 2.506
Abundance Ratio: (11) / (11 with PU-H71) [1, 4]: 0.783
Abundance Ratio: (11) / (DMSO) [1, 5]: 1.461
Abundance Ratio: (11) / (11 with PU-H71) [1, 6]: 0.79
Abundance Ratio: (11) / (11 with PU-H71) ([2]; Exp3, TUBA1B): 0.849
Abundance Ratio: (11) / (DMSO) ([2]; Exp3, TUBA1B): 4.864
Abundances (Grouped): 11 ([2]; Exp3, TUBA1B): 236.9
Abundances (Grouped): 11 with PU-H71 ([2]; Exp3, TUBA1B): 279
Abundance Ratio: (11) / (DMSO) [2, 3]: 6.965
Abundance Ratio: (11) / (11 with PU-H71) [2, 4]: 0.862
Abundance Ratio: (11) / (11 with PU-H71) ([2]; sheet Exp2, TUBA1B): 0.827
Abundance Ratio: (11) / (DMSO) ([2]; sheet Exp2, TUBA1B): 7.231
Abundances (Grouped): 11 ([2]; sheet Exp2, TUBA1B): 197.4
Abundances (Grouped): 11 with PU-H71 ([2]; sheet Exp2, TUBA1B): 238.8
Abundance Ratio: (11) / (DMSO) [2, 5]: 6.965
Abundance Ratio: (11) / (11 with PU-H71) [2, 6]: 0.862
SMILES: CC(=O)Oc1ccc2c(c1)Oc1cc(OC(C)=O)ccc1C21OC(=O)c2cc(C(=O)NCCOCCOCCNC(=O)CCCC(=O)N(CC#N)S(=O)(=O)c3ccc(C(=O)NCCCn4c(Sc5cc6c(cc5I)OCO6)nc5c(N)ncnc54)cc3)ccc21 [compound 11]
